Reference: PubChem BioAssay AID248 (DTP/NCI, 2004)
Values joined by “and” are separate entries in the source; they are usually repeats but may differ in a detail not shown here. Equal values may be shown once. Toxic doses and inconclusive results are not listed. Rule as the data show it: active = T/C of 150% or more; inactive = T/C below 125%.

Tested on: L1210 leukemia ip in BDF1 mice, survival T/C
Experiment: NCI In Vivo Anticancer Drug Screen. Data for tumor model L1210 Leukemia (intraperitoneal) in B6D2F1 (BDF1) mice
Settings: endpoint: mean survival time, higher = longer survival
Outline: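 Tumor was transplanted into mice, which were then dosed with test compound or vehicle alone. Survival was recorded for each group, and the treated figure was expressed relative to the control figure.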

[1] = dose: 100.0 mg/kg/injection, schedule: Q01DX001 (ip), vehicle: saline
[2] = dose: 100.0 mg/kg/injection, schedule: Q01DX009 (ip), vehicle: saline
[3] = dose: 200.0 mg/kg/injection, schedule: Q01DX001 (ip), vehicle: saline
[4] = dose: 200.0 mg/kg/injection, schedule: Q01DX009 (ip), vehicle: saline
[5] = dose: 400.0 mg/kg/injection, schedule: Q01DX001 (ip), vehicle: saline
[6] = dose: 100.0 mg/kg/injection, schedule: Q01DX009 (ip), vehicle: Klucel (hydroxypropylcellulose) (HPC)
[7] = dose: 200.0 mg/kg/injection, schedule: Q01DX009 (ip), vehicle: Klucel (hydroxypropylcellulose) (HPC)
[8] = dose: 400.0 mg/kg/injection, schedule: Q01DX009 (ip), vehicle: Klucel (hydroxypropylcellulose) (HPC)
[9] = dose: 100.0 mg/kg/injection, schedule: Q04DX003 (ip), vehicle: Klucel (hydroxypropylcellulose) (HPC)
[10] = dose: 200.0 mg/kg/injection, schedule: Q04DX003 (ip), vehicle: Klucel (hydroxypropylcellulose) (HPC)
[11] = dose: 400.0 mg/kg/injection, schedule: Q04DX003 (ip), vehicle: Klucel (hydroxypropylcellulose) (HPC)
[12] = dose: 100.0 mg/kg/injection, schedule: Q01DX009 (ip), vehicle: saline with Tween-80
[13] = dose: 100.0 mg/kg/injection, schedule: Q04DX003 (ip), vehicle: saline
[14] = dose: 200.0 mg/kg/injection, schedule: Q01DX009 (ip), vehicle: saline with Tween-80
[15] = dose: 200.0 mg/kg/injection, schedule: Q04DX003 (ip), vehicle: saline
[16] = dose: 400.0 mg/kg/injection, schedule: Q04DX003 (ip), vehicle: saline
[17] = dose: 12.5 mg/kg/injection, schedule: Q04DX003 (ip), vehicle: saline with Tween-80
[18] = dose: 100.0 mg/kg/injection, schedule: Q04DX003 (ip), vehicle: saline with Tween-80
[19] = dose: 200.0 mg/kg/injection, schedule: Q04DX003 (ip), vehicle: saline with Tween-80

Measured: T/C

NC(C=O)C(O)C(O)C(O)CO (configuration not stated)
inactive: dose: 50.0 mg/kg/injection, schedule: Q01DX009 (ip), vehicle: saline 94 % of control | [1] 104 % of control and 93 % of control | [2] 94 % of control | dose: 125.0 mg/kg/injection, schedule: Q01DX Z (ip), vehicle: carboxymethylcellulose (CMC) 100 % of control | [3] 105 % of control and 102 % of control | [4] 94 % of control | dose: 250.0 mg/kg/injection, schedule: Q01DX Z (ip), vehicle: carboxymethylcellulose (CMC) 94 % of control | [5] 102 % of control and 96 % of control | dose: 500.0 mg/kg/injection, schedule: Q01DX Z (ip), vehicle: carboxymethylcellulose (CMC) 96 % of control | dose: 750.0 mg/kg/injection, schedule: Q01DX009 (ip), vehicle: saline 100 % of control | dose: 1000.0 mg/kg/injection, schedule: Q01DX Z (ip), vehicle: carboxymethylcellulose (CMC) 95 % of control | dose: 1500.0 mg/kg/injection, schedule: Q01DX009 (ip), vehicle: saline 104 % of control | dose: 3000.0 mg/kg/injection, schedule: Q01DX009 (ip), vehicle: saline 104 % of control and 107 % of control | dose: 5000.0 mg/kg/injection, schedule: Q01DX009 (ip), vehicle: saline 98 % of control

COc1cc(NS(=O)(=O)c2ccc(C(C)=O)cc2)nc(OC)n1
inactive: [6] 94 % of control | [7] 102 % of control | [8] 98 % of control

O=C(Nc1cc([N+](=O)[O-])ccc1F)Oc1cccc(C(F)(F)F)c1
inactive: [9] 89 % of control | [10] 97 % of control | [11] 95 % of control

CCOC(=O)c1ccc(NC(=O)Nc2c(C)n(C)n(-c3ccccc3)c2=O)cc1
inactive: [1] 87 % of control | [12] 89 % of control | [13] 89 % of control | [3] 90 % of control | [14] 86 % of control | [15] 89 % of control | [5] 92 % of control | [16] 90 % of control

C/C(=N/S(=O)(=O)c1ccc(C)cc1)OCCN(C)C
inactive: dose: 3.0 mg/kg/injection, schedule: Q01DX009 (ip), vehicle: saline with Tween-80 100 % of control | dose: 3.0 mg/kg/injection, schedule: Q04DX003 (ip), vehicle: saline with Tween-80 98 % of control | dose: 6.0 mg/kg/injection, schedule: Q01DX009 (ip), vehicle: saline with Tween-80 95 % of control | dose: 6.0 mg/kg/injection, schedule: Q04DX003 (ip), vehicle: saline with Tween-80 101 % of control | [17] 90 % of control

c1ccc2c(c1)ccc1c3c([nH]c12)CCCC3
inactive: dose: 100.0 mg/kg/injection, schedule: Q01DX001 (ip), vehicle: carboxymethylcellulose (CMC) 88 % of control | dose: 200.0 mg/kg/injection, schedule: Q01DX001 (ip), vehicle: carboxymethylcellulose (CMC) 98 % of control | dose: 400.0 mg/kg/injection, schedule: Q01DX001 (ip), vehicle: carboxymethylcellulose (CMC) 88 % of control

NC(Cc1cc(I)c(Oc2ccc(O)c(I)c2)c(I)c1)C(=O)O (configuration not stated)
inactive: dose: 25.0 micrograms/kg/injection, schedule: Q01DX Z (ip), vehicle: saline 86 % of control | dose: 50.0 micrograms/kg/injection, schedule: Q01DX Z (ip), vehicle: saline 92 % of control | dose: 100.0 micrograms/kg/injection, schedule: Q01DX Z (ip), vehicle: saline 101 % of control | dose: 200.0 micrograms/kg/injection, schedule: Q01DX Z (ip), vehicle: saline 89 % of control

OCC(O)C(O)C(O)C(O)C1SCCS1 (configuration not stated)
inactive: [6] 88 % of control | [9] 98 % of control and 103 % of control and 93 % of control | [7] 89 % of control | [10] 103 % of control and 93 % of control | [8] 100 % of control | [11] 115 % of control and 88 % of control

CC12C=CC(CC1)C2OC(=O)c1ccccc1C(=O)O (configuration not stated)
inactive: [6] 95 % of control | [9] 94 % of control | [7] 97 % of control | [10] 108 % of control | [8] 92 % of control | [11] 92 % of control

OCC1C2CCC(C2)C1CO (configuration not stated)
inactive: dose: 50.0 mg/kg/injection, schedule: Q01DX009 (ip), vehicle: saline with Tween-80 96 % of control

O=C1OC(c2ccccc2)=N/C1=C1\OC(=O)c2ccccc21
inactive: dose: 50.0 mg/kg/injection, schedule: Q01DX009 (ip), vehicle: Klucel (hydroxypropylcellulose) (HPC) 92 % of control | [6] 86 % of control | [7] 92 % of control | [8] 89 % of control

COc1ccc(C(=O)NC(=S)Nc2ccc(CCO)cc2)cc1
inactive: [12] 98 % of control and 101 % of control | dose: 100.0 mg/kg/injection, schedule: Q04DX002 (ip), vehicle: saline with Tween-80 98 % of control | [18] 96 % of control | [14] 101 % of control and 102 % of control | dose: 200.0 mg/kg/injection, schedule: Q04DX002 (ip), vehicle: saline with Tween-80 100 % of control | [19] 94 % of control | dose: 400.0 mg/kg/injection, schedule: Q01DX009 (ip), vehicle: saline with Tween-80 94 % of control and 104 % of control | dose: 400.0 mg/kg/injection, schedule: Q04DX002 (ip), vehicle: saline with Tween-80 98 % of control | dose: 400.0 mg/kg/injection, schedule: Q04DX003 (ip), vehicle: saline with Tween-80 92 % of control

CN(C)CCC(C=NCC(CCN(C)C)(CCN(C)C)c1cccc2ccccc12)(CCN(C)C)c1cccc2ccccc12
inactive: dose: 12.5 mg/kg/injection, schedule: Q01DX009 (ip), vehicle: saline with Tween-80 90 % of control | [17] 102 % of control | dose: 25.0 mg/kg/injection, schedule: Q01DX009 (ip), vehicle: saline with Tween-80 91 % of control | dose: 25.0 mg/kg/injection, schedule: Q04DX003 (ip), vehicle: saline with Tween-80 98 % of control

NS(=O)(=O)Cl
inactive: dose: 100.0 mg/kg/injection, schedule: Q01DX009 (sc), vehicle: olive oil, sesame oil, peanut oil 98 % of control | dose: 100.0 mg/kg/injection, schedule: Q04DX003 (sc), vehicle: olive oil, sesame oil, peanut oil 102 % of control | dose: 200.0 mg/kg/injection, schedule: Q01DX009 (sc), vehicle: olive oil, sesame oil, peanut oil 100 % of control | dose: 200.0 mg/kg/injection, schedule: Q04DX003 (sc), vehicle: olive oil, sesame oil, peanut oil 103 % of control | dose: 400.0 mg/kg/injection, schedule: Q01DX009 (sc), vehicle: olive oil, sesame oil, peanut oil 95 % of control | dose: 400.0 mg/kg/injection, schedule: Q04DX003 (sc), vehicle: olive oil, sesame oil, peanut oil 108 % of control

CCCCNc1nc2ccccc2[nH]1
inactive: dose: 5.0 mg/kg/injection, schedule: Q01DX009 (ip), vehicle: acetone 98 % of control | dose: 10.0 mg/kg/injection, schedule: Q01DX001 (ip), vehicle: saline 103 % of control | dose: 10.0 mg/kg/injection, schedule: Q01DX009 (ip), vehicle: acetone 98 % of control | dose: 20.0 mg/kg/injection, schedule: Q01DX001 (ip), vehicle: saline 101 % of control | dose: 20.0 mg/kg/injection, schedule: Q01DX009 (ip), vehicle: acetone 110 % of control | dose: 40.0 mg/kg/injection, schedule: Q01DX001 (ip), vehicle: saline 101 % of control

CCOC(=O)/C(C)=N\N(C)C
inactive: [2] 92 % of control | [13] 97 % of control | [4] 92 % of control | [15] 101 % of control | [16] 88 % of control

O=S(=O)(CCO)CCS(=O)(=O)CCO
inactive: dose: 75.0 mg/kg/injection, schedule: Q01DX009 (ip), vehicle: carboxymethylcellulose (CMC) 92 % of control | dose: 150.0 mg/kg/injection, schedule: Q01DX009 (ip), vehicle: carboxymethylcellulose (CMC) 102 % of control | dose: 300.0 mg/kg/injection, schedule: Q01DX009 (ip), vehicle: carboxymethylcellulose (CMC) 92 % of control

CCC(C)C(CO)c1ccccc1 (configuration not stated)
inactive: [18] 93 % of control | [19] 91 % of control
